Measured values: PubChem BioAssay (NCI)
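Cells were grown in 96-well plates and exposed to each compound for 48 hours at five concentrations; endpoints were interpolated linearly between bracketing concentrations, or set to the highest concentration if not reached. The concentration for 50% growth inhibition is given as GI50. TGI denotes the concentration required for complete inhibition of growth.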

Key:
Assay in all cases: inhibition of tumour cell growth, NCI panel, 48 h; in the data active = GI50 below about 0.43 µM; inactive = the rest
UACC-257 melanoma = tested on: UACC-257 melanoma
ACHN renal = tested on: ACHN renal
PC-3 prostate = tested on: PC-3 prostate
UO-31 renal = tested on: UO-31 renal
HCT-116 colon = tested on: HCT-116 colon
NCI-H522 lung = tested on: NCI-H522 lung
RXF 393 renal = tested on: RXF 393 renal
T-47D breast = tested on: T-47D breast
EKVX NSCLC = tested on: EKVX NSCLC
NCI/ADR-RES ovarian = tested on: NCI/ADR-RES ovarian
MALME-3M melanoma = tested on: MALME-3M melanoma
HS 578T breast = tested on: HS 578T breast
786-0 renal = tested on: 786-0 renal
OVCAR-4 ovarian = tested on: OVCAR-4 ovarian
UACC-62 melanoma = tested on: UACC-62 melanoma
SF-295 CNS = tested on: SF-295 CNS
SN12C renal = tested on: SN12C renal
TK-10 renal = tested on: TK-10 renal
HL-60(TB) leukemia = tested on: HL-60(TB) leukemia
BT-549 breast = tested on: BT-549 breast
SK-MEL-5 melanoma = tested on: SK-MEL-5 melanoma
NCI-H226 lung = tested on: NCI-H226 lung
RPMI-8226 leukemia = tested on: RPMI-8226 leukemia
KM12 colon = tested on: KM12 colon
SF-539 CNS = tested on: SF-539 CNS
OVCAR-5 ovarian = tested on: OVCAR-5 ovarian
M14 melanoma = tested on: M14 melanoma
A549 NSCLC = tested on: A549 NSCLC
OVCAR-3 ovarian = tested on: OVCAR-3 ovarian
SK-MEL-28 melanoma = tested on: SK-MEL-28 melanoma
OVCAR-8 ovarian = tested on: OVCAR-8 ovarian
MCF7 breast = tested on: MCF7 breast
HOP-92 NSCLC = tested on: HOP-92 NSCLC
HCT-15 colon = tested on: HCT-15 colon
SK-OV-3 ovarian = tested on: SK-OV-3 ovarian
A498 renal = tested on: A498 renal
LOX IMVI melanoma = tested on: LOX IMVI melanoma
HCC-2998 colon = tested on: HCC-2998 colon
IGROV1 ovarian = tested on: IGROV1 ovarian
SNB-19 CNS = tested on: SNB-19 CNS
SK-MEL-2 melanoma = tested on: SK-MEL-2 melanoma
SNB-75 CNS = tested on: SNB-75 CNS
NCI-H460 lung = tested on: NCI-H460 lung
DU-145 prostate = tested on: DU-145 prostate
CAKI-1 renal = tested on: CAKI-1 renal
NCI-H23 lung = tested on: NCI-H23 lung
SF-268 CNS = tested on: SF-268 CNS
CCRF-CEM leukemia = tested on: CCRF-CEM leukemia
K-562 leukemia = tested on: K-562 leukemia
MDA-MB-231 breast = tested on: MDA-MB-231 breast
HT29 colon = tested on: HT29 colon
U251 CNS = tested on: U251 CNS
SW-620 colon = tested on: SW-620 colon
HOP-62 NSCLC = tested on: HOP-62 NSCLC
COLO 205 colon = tested on: COLO 205 colon
MDA-MB-435 = tested on: MDA-MB-435
MOLT-4 leukemia = tested on: MOLT-4 leukemia
SR leukemia = tested on: SR leukemia

C=C(CN1CCN(c2ccc(Cl)cc2F)CC1)c1ccc(C(=O)Nc2ccccc2N)cc1
> 25.7 µM: TGI (SK-OV-3 ovarian)
> 60.5 µM: TGI (HCC-2998 colon)
8.43 µM: TGI (LOX IMVI melanoma)
> 66.6 µM: TGI (OVCAR-4 ovarian)
14.8 µM: TGI (IGROV1 ovarian)
> 34.3 µM: TGI (SNB-19 CNS)
> 46.1 µM: TGI (SNB-75 CNS)
3.64 µM: TGI (MDA-MB-231 breast)
> 59.7 µM: TGI (KM12 colon)
5.5 µM: TGI (NCI/ADR-RES ovarian)
> 27.4 µM: TGI (HOP-92 NSCLC)
> 95.3 µM: TGI (COLO 205 colon)
27.8 µM: TGI (HOP-62 NSCLC)
> 80.4 µM: TGI (A498 renal)
> 25.1 µM: TGI (UO-31 renal)
> 94.2 µM: TGI (HCT-116 colon)
3.21 µM: TGI (RPMI-8226 leukemia)
> 22.4 µM: TGI (SK-MEL-5 melanoma)
48.6 µM: TGI (UACC-257 melanoma)
> 92.1 µM: TGI (UACC-62 melanoma)
21.5 µM: TGI (U251 CNS)
5.95 µM: TGI (NCI-H522 lung)
12.4 µM: TGI (RXF 393 renal)
> 30.5 µM: TGI (A549 NSCLC)
> 70.6 µM: TGI (HS 578T breast)
> 65.3 µM: TGI (BT-549 breast)
> 52.8 µM: TGI (SF-539 CNS)
> 100 µM: TGI (ACHN renal) | TGI (PC-3 prostate) | TGI (T-47D breast) | TGI (EKVX NSCLC) | TGI (MALME-3M melanoma) | TGI (786-0 renal) | TGI (SF-295 CNS) | TGI (SN12C renal) | TGI (TK-10 renal) | TGI (NCI-H226 lung) | TGI (OVCAR-5 ovarian) | TGI (OVCAR-3 ovarian) | TGI (SK-MEL-28 melanoma) | TGI (OVCAR-8 ovarian) | TGI (MCF7 breast) | TGI (HCT-15 colon) | TGI (SK-MEL-2 melanoma) | TGI (NCI-H460 lung) | TGI (DU-145 prostate) | TGI (CAKI-1 renal) | TGI (NCI-H23 lung) | TGI (SF-268 CNS) | TGI (CCRF-CEM leukemia) | TGI (K-562 leukemia) | TGI (HT29 colon) | TGI (SW-620 colon)
inactive: GI50 (UACC-257 melanoma) 1.59 µM | GI50 (ACHN renal) 4.02 µM | GI50 (PC-3 prostate) 1.55 µM | GI50 (UO-31 renal) 1.1 µM | GI50 (HCT-116 colon) 1.85 µM | GI50 (NCI-H522 lung) 2.19 µM | GI50 (RXF 393 renal) 0.867 µM | GI50 (EKVX NSCLC) 11.5 µM | GI50 (NCI/ADR-RES ovarian) 1.97 µM | GI50 (MALME-3M melanoma) 1.92 µM | GI50 (HS 578T breast) 3.38 µM | GI50 (786-0 renal) 2.28 µM | GI50 (UACC-62 melanoma) 2.42 µM | GI50 (SF-295 CNS) 3.16 µM | GI50 (SN12C renal) 1.87 µM | GI50 (TK-10 renal) 3.53 µM | GI50 (HL-60(TB) leukemia) 0.794 µM | GI50 (BT-549 breast) 2.99 µM | GI50 (SK-MEL-5 melanoma) 2.3 µM | GI50 (NCI-H226 lung) 3.29 µM | GI50 (RPMI-8226 leukemia) 0.628 µM | GI50 (KM12 colon) 2.26 µM | GI50 (SF-539 CNS) 2.02 µM | GI50 (OVCAR-5 ovarian) 51.7 µM | GI50 (M14 melanoma) 2.03 µM | GI50 (A549 NSCLC) 2.56 µM | GI50 (OVCAR-3 ovarian) 2.29 µM | GI50 (SK-MEL-28 melanoma) > 26.8 µM | GI50 (OVCAR-8 ovarian) 3.4 µM | GI50 (MCF7 breast) 3.08 µM | GI50 (HOP-92 NSCLC) 1.57 µM | GI50 (HCT-15 colon) 2.16 µM | GI50 (A498 renal) 3.03 µM | GI50 (LOX IMVI melanoma) 3 µM | GI50 (HCC-2998 colon) 3.84 µM | GI50 (IGROV1 ovarian) 1.16 µM | GI50 (SK-MEL-2 melanoma) 6.95 µM | GI50 (SNB-75 CNS) 11.4 µM | GI50 (NCI-H460 lung) 3.23 µM | GI50 (DU-145 prostate) 3.14 µM | GI50 (CAKI-1 renal) 2.72 µM | GI50 (NCI-H23 lung) 3.13 µM | GI50 (SF-268 CNS) 2.61 µM | GI50 (CCRF-CEM leukemia) 0.524 µM | GI50 (K-562 leukemia) 1.12 µM | GI50 (MDA-MB-231 breast) 0.536 µM | GI50 (HT29 colon) 2.96 µM | GI50 (U251 CNS) 1.8 µM | GI50 (SW-620 colon) 3.06 µM | GI50 (HOP-62 NSCLC) 3.42 µM | GI50 (COLO 205 colon) 16.7 µM

CCOC(=O)N1CCC2(CC1)C[C@](C)(C(C)=O)C(C)O2 (some centres not stated)
> 100 µM: TGI (UACC-257 melanoma) | TGI (ACHN renal) | TGI (PC-3 prostate) | TGI (UO-31 renal) | TGI (NCI-H522 lung) | TGI (EKVX NSCLC) | TGI (NCI/ADR-RES ovarian) | TGI (MALME-3M melanoma) | TGI (HS 578T breast) | TGI (MDA-MB-435) | TGI (786-0 renal) | TGI (OVCAR-4 ovarian) | TGI (UACC-62 melanoma) | TGI (SF-295 CNS) | TGI (TK-10 renal) | TGI (SK-MEL-5 melanoma) | TGI (NCI-H226 lung) | TGI (RPMI-8226 leukemia) | TGI (KM12 colon) | TGI (SF-539 CNS) | TGI (OVCAR-5 ovarian) | TGI (M14 melanoma) | TGI (A549 NSCLC) | TGI (OVCAR-3 ovarian) | TGI (SK-MEL-28 melanoma) | TGI (OVCAR-8 ovarian) | TGI (MCF7 breast) | TGI (HOP-92 NSCLC) | TGI (HCT-15 colon) | TGI (MOLT-4 leukemia) | TGI (SK-OV-3 ovarian) | TGI (A498 renal) | TGI (LOX IMVI melanoma) | TGI (HCC-2998 colon) | TGI (IGROV1 ovarian) | TGI (SNB-19 CNS) | TGI (SK-MEL-2 melanoma) | TGI (NCI-H460 lung) | TGI (CAKI-1 renal) | TGI (NCI-H23 lung) | TGI (SF-268 CNS) | TGI (K-562 leukemia) | TGI (MDA-MB-231 breast) | TGI (HT29 colon) | TGI (U251 CNS) | TGI (SW-620 colon) | TGI (SR leukemia) | TGI (HOP-62 NSCLC) | TGI (COLO 205 colon)
17.8 µM: TGI (HL-60(TB) leukemia)

C=C(C)[C@@H]1CCC[C@]2(COS(=O)(=O)c3ccc(C)cc3)CC[C@]3(C)[C@@H](CC[C@@H]4[C@@]5(C)CCCNC(C)(C)[C@@H]5CC[C@]43C)[C@@H]12
3.3 µM: TGI (SK-OV-3 ovarian)
4.54 µM: TGI (RPMI-8226 leukemia)
3.15 µM: TGI (CAKI-1 renal)
3.14 µM: TGI (A498 renal)
inactive: GI50 (RPMI-8226 leukemia) 1.86 µM | GI50 (SK-OV-3 ovarian) 1.87 µM | GI50 (A498 renal) 1.63 µM | GI50 (CAKI-1 renal) 1.74 µM
